Article PMC11233931, “Remodeling tumor‐associated macrophage for anti‐cancer effects by rational design of irreversible inhibition of mitogen‐activated protein kinase‐activated protein kinase 2” (MedComm, 2024)

What was measured:
Assay in all cases: Eurofins kinase selectivity profile against 380 other human recombinant kinases (Table S2)
Type in all cases: biochemical
[1] = target: T1, 380 human recombinant protein kinases (Homo sapiens, UniProt O15111); settings: IKKα(h), read-out: Inhibition rate
T1 construct: purchased Eurofins (Celle Lévescault)
T1 sequence (O15111 1-745): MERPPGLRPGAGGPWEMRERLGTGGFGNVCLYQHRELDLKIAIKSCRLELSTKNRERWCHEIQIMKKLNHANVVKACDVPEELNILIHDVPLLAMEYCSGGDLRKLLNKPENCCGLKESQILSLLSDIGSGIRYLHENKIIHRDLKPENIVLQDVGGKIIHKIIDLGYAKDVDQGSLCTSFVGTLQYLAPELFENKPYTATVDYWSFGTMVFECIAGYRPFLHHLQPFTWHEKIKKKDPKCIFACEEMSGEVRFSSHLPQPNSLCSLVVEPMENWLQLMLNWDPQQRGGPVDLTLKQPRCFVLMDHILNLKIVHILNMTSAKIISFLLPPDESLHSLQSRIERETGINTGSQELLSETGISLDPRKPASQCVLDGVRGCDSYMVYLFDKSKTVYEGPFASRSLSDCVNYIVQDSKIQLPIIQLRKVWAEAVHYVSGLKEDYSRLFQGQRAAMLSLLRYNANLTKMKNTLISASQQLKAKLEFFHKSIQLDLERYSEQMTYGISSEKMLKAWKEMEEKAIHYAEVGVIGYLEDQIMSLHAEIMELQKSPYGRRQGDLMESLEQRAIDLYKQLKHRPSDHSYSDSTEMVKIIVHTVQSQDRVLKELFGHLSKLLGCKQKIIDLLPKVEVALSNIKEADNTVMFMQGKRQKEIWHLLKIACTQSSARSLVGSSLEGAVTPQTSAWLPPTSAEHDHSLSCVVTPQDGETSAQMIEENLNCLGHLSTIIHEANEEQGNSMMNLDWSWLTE
Outline: (§1)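 Commercial selectivity screen of the test compound against a panel of 380 human recombinant protein kinases, run by an outside contractor at several compound concentrations to check whether its potency was specific for MK2.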

[2] = target: T2, 380 human recombinant protein kinases (Homo sapiens, UniProt O94806); settings: PKD3(h), read-out: Inhibition rate
T2 construct: purchased Eurofins (Celle Lévescault)
T2 sequence (O94806 1-890): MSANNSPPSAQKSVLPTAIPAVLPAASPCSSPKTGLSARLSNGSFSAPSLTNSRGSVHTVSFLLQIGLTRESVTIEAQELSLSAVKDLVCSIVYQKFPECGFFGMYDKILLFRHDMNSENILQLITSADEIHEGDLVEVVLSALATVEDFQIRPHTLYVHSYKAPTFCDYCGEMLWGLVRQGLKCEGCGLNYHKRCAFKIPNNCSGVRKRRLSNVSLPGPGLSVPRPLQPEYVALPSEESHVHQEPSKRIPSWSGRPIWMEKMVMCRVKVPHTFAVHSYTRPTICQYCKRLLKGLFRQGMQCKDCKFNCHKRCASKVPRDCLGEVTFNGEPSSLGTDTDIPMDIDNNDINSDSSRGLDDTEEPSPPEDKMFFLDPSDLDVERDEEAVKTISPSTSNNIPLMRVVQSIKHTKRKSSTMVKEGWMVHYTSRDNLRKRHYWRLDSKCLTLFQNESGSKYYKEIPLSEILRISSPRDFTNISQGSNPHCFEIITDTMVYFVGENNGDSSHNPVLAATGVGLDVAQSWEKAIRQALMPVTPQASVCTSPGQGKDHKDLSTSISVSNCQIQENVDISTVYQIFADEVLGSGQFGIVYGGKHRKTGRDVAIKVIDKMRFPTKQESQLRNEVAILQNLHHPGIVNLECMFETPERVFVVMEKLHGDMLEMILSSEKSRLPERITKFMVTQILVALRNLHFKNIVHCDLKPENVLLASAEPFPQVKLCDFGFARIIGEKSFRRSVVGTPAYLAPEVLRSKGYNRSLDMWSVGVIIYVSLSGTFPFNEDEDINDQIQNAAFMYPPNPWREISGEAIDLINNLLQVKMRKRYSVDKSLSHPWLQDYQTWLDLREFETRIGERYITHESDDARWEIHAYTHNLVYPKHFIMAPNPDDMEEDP
Outline: as §1

[3] = target: T3, 380 human recombinant protein kinases (Homo sapiens, UniProt P00519, M351T); settings: Abl (M351T)(h), read-out: Inhibition rate
T3 construct: purchased Eurofins (Celle Lévescault)
Outline: as §1

[4] = target: T4, 380 human recombinant protein kinases (Homo sapiens, UniProt P21802); settings: FGFR2(h), read-out: Inhibition rate
T4 construct: purchased Eurofins (Celle Lévescault)
Outline: as §1

[5] = target: T5, 380 human recombinant protein kinases (Homo sapiens, UniProt P80192); settings: MLK1(h), read-out: Inhibition rate
T5 construct: purchased Eurofins (Celle Lévescault)
Outline: as §1

[6] = target: T6, 380 human recombinant protein kinases (Homo sapiens, UniProt Q14004); settings: CDK13/cyclinK(h), read-out: Inhibition rate
T6 construct: purchased Eurofins (Celle Lévescault)
Outline: as §1

[7] = target: T7, 380 human recombinant protein kinases (Homo sapiens, UniProt Q96SB4); settings: SRPK1(h), read-out: Inhibition rate (%)
T7 construct: purchased Eurofins (Celle Lévescault)
Outline: as §1

[8] = target: T8, 380 human recombinant protein kinases (Homo sapiens, UniProt Q9C098); settings: DCAMKL3(h), read-out: Inhibition rate
T8 construct: purchased Eurofins (Celle Lévescault)
Outline: as §1

[9] = target: T9, 380 human recombinant protein kinases (Homo sapiens, UniProt Q9Y5S2); settings: MRCKβ(h), read-out: Inhibition rate
T9 construct: purchased Eurofins (Celle Lévescault)
Outline: as §1

T8 sequence (Q9C098 whole entry): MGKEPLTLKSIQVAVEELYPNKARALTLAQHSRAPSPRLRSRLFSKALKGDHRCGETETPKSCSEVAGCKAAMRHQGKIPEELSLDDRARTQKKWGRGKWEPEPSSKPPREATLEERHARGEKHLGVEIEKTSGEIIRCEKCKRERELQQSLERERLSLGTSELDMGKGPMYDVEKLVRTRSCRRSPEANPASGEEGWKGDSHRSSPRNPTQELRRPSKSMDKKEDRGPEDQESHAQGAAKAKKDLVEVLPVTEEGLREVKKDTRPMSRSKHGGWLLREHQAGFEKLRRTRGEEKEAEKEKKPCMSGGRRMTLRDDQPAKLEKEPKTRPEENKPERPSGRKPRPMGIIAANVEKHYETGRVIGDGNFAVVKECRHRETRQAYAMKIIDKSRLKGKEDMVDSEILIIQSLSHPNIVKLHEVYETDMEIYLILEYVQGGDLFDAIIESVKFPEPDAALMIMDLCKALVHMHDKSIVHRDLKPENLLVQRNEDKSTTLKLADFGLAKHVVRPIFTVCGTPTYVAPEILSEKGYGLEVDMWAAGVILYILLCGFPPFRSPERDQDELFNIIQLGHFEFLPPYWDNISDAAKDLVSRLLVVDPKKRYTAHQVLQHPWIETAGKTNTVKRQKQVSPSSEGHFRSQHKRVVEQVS
T6 sequence (Q14004 whole entry): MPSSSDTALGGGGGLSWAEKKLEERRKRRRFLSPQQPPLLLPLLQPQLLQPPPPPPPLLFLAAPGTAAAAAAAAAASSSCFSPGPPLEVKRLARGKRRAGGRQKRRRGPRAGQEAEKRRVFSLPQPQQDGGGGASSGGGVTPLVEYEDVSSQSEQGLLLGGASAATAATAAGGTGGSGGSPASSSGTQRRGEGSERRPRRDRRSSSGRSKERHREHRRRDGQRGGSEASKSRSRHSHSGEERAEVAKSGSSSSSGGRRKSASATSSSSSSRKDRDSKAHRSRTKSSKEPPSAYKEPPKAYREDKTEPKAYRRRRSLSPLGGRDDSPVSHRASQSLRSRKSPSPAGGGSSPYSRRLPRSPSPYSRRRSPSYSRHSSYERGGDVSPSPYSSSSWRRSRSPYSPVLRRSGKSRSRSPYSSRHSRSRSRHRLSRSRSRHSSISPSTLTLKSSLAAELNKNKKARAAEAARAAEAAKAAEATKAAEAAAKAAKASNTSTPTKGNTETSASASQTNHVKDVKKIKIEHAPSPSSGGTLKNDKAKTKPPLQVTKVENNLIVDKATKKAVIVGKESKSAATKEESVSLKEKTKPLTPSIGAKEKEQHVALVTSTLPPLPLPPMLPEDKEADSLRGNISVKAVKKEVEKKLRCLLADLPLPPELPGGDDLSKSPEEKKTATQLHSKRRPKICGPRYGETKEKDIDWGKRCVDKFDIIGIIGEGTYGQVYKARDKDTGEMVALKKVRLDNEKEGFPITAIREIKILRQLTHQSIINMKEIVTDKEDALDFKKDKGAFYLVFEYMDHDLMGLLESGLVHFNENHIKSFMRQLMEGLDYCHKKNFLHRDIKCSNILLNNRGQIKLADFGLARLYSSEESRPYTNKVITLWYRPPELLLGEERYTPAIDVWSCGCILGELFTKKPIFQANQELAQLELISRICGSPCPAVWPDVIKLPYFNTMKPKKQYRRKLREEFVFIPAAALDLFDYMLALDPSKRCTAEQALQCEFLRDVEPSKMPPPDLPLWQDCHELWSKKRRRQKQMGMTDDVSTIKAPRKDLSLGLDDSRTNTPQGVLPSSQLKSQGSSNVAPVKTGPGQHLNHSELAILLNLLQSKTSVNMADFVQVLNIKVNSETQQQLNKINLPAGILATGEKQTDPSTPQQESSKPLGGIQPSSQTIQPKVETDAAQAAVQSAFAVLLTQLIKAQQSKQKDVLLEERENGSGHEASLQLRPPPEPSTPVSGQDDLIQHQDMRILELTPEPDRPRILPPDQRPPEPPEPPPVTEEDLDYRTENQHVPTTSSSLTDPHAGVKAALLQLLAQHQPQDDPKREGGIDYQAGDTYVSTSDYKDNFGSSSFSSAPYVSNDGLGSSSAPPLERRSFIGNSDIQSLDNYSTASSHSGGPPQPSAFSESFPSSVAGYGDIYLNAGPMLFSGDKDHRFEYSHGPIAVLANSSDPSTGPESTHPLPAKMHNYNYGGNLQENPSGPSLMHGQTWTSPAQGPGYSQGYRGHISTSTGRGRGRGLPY
T7 sequence (Q96SB4 whole entry): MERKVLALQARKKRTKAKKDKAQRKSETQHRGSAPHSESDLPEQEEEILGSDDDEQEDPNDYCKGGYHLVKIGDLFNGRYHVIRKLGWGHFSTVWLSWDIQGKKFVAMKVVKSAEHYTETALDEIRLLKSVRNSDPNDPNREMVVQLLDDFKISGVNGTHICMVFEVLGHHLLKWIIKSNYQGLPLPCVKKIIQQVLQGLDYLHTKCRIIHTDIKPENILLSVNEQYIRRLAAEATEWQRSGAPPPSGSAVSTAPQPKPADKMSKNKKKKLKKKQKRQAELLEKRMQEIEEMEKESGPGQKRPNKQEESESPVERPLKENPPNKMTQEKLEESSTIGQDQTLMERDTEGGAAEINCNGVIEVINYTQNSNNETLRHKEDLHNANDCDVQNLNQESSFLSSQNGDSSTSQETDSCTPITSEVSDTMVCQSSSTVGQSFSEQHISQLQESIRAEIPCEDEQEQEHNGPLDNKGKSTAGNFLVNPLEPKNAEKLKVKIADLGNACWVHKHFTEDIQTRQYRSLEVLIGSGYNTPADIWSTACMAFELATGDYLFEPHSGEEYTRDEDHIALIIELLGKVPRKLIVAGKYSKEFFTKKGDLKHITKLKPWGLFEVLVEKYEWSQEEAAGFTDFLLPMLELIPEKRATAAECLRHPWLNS
T4 sequence (P21802 22-821): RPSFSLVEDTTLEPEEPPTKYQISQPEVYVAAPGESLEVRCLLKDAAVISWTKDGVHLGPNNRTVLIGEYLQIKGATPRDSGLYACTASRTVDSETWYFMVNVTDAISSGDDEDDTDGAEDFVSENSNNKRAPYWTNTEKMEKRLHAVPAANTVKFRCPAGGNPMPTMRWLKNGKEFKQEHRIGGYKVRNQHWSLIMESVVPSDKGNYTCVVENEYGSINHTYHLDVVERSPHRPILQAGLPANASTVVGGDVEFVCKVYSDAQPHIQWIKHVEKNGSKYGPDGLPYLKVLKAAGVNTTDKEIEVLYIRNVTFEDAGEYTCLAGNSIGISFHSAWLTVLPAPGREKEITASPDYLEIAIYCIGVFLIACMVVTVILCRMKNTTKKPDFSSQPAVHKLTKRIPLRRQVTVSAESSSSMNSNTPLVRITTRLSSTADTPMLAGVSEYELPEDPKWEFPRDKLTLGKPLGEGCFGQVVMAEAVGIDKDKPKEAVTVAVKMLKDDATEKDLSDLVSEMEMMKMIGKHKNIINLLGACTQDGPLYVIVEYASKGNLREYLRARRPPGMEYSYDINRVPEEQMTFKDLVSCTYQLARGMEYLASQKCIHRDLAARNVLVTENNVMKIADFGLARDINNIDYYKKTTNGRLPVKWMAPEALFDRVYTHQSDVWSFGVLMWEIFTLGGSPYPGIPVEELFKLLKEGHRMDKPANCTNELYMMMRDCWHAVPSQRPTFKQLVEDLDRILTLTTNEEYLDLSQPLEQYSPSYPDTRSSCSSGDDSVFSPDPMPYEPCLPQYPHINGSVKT
T5 sequence (P80192 whole entry): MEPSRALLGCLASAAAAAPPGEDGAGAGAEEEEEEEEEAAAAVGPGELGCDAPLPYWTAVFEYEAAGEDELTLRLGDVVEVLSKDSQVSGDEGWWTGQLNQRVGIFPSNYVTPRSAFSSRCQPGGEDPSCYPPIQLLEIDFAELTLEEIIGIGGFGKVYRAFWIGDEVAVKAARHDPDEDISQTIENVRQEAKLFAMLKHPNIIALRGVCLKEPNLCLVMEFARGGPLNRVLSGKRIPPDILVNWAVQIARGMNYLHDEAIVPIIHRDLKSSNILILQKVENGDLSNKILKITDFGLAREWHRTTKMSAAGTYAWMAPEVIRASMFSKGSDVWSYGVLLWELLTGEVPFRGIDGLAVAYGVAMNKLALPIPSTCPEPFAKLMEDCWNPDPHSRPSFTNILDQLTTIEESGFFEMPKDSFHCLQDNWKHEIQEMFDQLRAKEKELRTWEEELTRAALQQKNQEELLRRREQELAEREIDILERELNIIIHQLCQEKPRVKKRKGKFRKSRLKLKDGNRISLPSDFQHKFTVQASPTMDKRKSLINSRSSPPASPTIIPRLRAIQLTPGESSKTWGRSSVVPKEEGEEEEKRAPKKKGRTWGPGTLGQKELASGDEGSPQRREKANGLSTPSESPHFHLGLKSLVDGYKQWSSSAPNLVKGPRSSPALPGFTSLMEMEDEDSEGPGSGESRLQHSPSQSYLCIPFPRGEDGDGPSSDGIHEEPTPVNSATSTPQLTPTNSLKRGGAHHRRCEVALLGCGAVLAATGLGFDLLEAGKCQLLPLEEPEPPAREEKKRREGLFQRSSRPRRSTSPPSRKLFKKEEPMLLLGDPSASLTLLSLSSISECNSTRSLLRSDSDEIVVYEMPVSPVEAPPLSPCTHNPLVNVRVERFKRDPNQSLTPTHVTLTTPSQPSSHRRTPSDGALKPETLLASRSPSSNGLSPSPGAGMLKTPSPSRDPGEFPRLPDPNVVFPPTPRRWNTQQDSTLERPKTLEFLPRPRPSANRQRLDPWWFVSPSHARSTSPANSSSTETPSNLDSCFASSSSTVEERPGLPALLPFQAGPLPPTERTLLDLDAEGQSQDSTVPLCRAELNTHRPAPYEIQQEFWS

Q: With `C=CC(=O)Nc1cc(-c2cc(-c3cc4c([nH]3)CCNC4=O)ccn2)ccc1OC(F)(F)F` [compound 11] as the compound, how does the inhibition at 0.01 µM ([1]; 10 nM) read?
A: The inhibition at 0.01 µM was -15%.

Q: And the inhibition at 0.1 µM ([1]; 100 nM)?
A: The inhibition at 0.1 µM was -14%.

Q: What about the inhibition at 1 µM ([1]; 1000 nM) of the same compound?
A: Its inhibition at 1 µM is -5%.

Q: What about the inhibition at 0.01 µM ([2]; 10 nM) of the same compound?
A: The inhibition at 0.01 µM was 4%.

Q: What about the inhibition at 0.1 µM ([2]; 100 nM) of the same compound?
A: The inhibition at 0.1 µM was 15%.

Q: What about the inhibition at 1 µM ([2]; 1000 nM) of the same compound?
A: The inhibition at 1 µM was 55%.

Q: And the inhibition at 0.01 µM ([3]; 10 nM)?
A: Its inhibition at 0.01 µM is 9%.

Q: And the inhibition at 0.1 µM ([3]; 100 nM)?
A: The inhibition at 0.1 µM was 2%.

Q: And the inhibition at 1 µM ([3]; 1000 nM)?
A: The inhibition at 1 µM was 22%.

Q: And the inhibition at 0.01 µM ([4]; 10 nM)?
A: The inhibition at 0.01 µM was -22%.

Q: What about the inhibition at 0.1 µM ([4]; 100 nM) of the same compound?
A: The inhibition at 0.1 µM was -12%.

Q: And the inhibition at 1 µM ([4]; 1000 nM)?
A: The inhibition at 1 µM was -2%.

Q: What about the inhibition at 0.01 µM ([5]; 10 nM) of the same compound?
A: Its inhibition at 0.01 µM is -3%.

Q: And the inhibition at 0.1 µM ([5]; 100 nM)?
A: Its inhibition at 0.1 µM is 0%.

Q: And the inhibition at 1 µM ([5]; 1000 nM)?
A: Its inhibition at 1 µM is 10%.

Q: What about the inhibition at 0.01 µM ([6]; 10 nM) of the same compound?
A: The inhibition at 0.01 µM was 1%.

Q: What about the inhibition at 0.1 µM ([6]; 100 nM) of the same compound?
A: The inhibition at 0.1 µM was 7%.

Q: What about the inhibition at 1 µM ([6]; 1000 nM) of the same compound?
A: Its inhibition at 1 µM is 9%.

Q: And the inhibition at 0.01 µM ([7]; 10 nM)?
A: The inhibition at 0.01 µM was 6%.

Q: What about the inhibition at 0.1 µM ([7]; 100 nM) of the same compound?
A: Its inhibition at 0.1 µM is 13%.

Q: And the inhibition at 1 µM ([7]; 1000 nM)?
A: The inhibition at 1 µM was 22%.

Q: What about the inhibition at 0.01 µM ([8]; 10 nM) of the same compound?
A: The inhibition at 0.01 µM was -1%.

Q: What about the inhibition at 0.1 µM ([8]; 100 nM) of the same compound?
A: The inhibition at 0.1 µM was 6%.

Q: What about the inhibition at 1 µM ([8]; 1000 nM) of the same compound?
A: Its inhibition at 1 µM is 26%.

Q: What about the inhibition at 0.01 µM ([9]; 10 nM) of the same compound?
A: The inhibition at 0.01 µM was 8%.

Q: What about the inhibition at 0.1 µM ([9]; 100 nM) of the same compound?
A: Its inhibition at 0.1 µM is 0%.

Q: What about the inhibition at 1 µM ([9]; 1000 nM) of the same compound?
A: The inhibition at 1 µM was 10%.
